Assay results as given in patent US20090087845A1, “Genetic Markers Of True Low Birth Weight” (priority 2005, published 2009).
Several values for one entry are separate records, joined by “and”; a condition that tells them apart may be missing. Equal entries are not always repeated.

System: placental gene expression
Assay: Placental gene expression (Affymetrix Rat Genome Chip 230.2) after SSRI (fluoxetine) exposure throughout gestation
Type: in vivo
Conditions: placenta, SSRI-exposed samples
Procedure: Gene expression data from pregnant rats under different forms of dietary restriction was gathered. […] (N=8) • Group 2 (CR50): Rats Given 50% of their Normal Daily Intake of Food. (N=5) • Group 3 (CR70): Rats Given 70% of their Normal Daily Intake of Food. […] (N=6) Placentas from the rats of each Group were harvested on Day 21 of gestation. RNA was extracted and gene expression was measured based on hybridization of RNA to Affymetrix Rat Genome Chips™ (230.2) (Affymetrix, Santa Clara, Calif.).
In order to determine whether placental gene expression profiling can be used to identify other prenatal exposures such as toxicants and drugs, a group of rats with drug exposure was monitored as described above. […] As with control, CR50, CR70, and HF groups, placentas from the mothers were sampled after 21 days of gestation and gene expression monitored utilizing an Affymetrix Rat Genome Chip.

CNCCC(Oc1ccc(C(F)(F)F)cc1)c1ccccc1 (stereo not shown) [fluoxetine, Fluoxetine]
expression, probeset 1384527_at: 5 and 5.16 and 4.806 and 4.891 and 4.944 and 4.995
expression, probeset 1384528_at: 7.1 and 7.424 and 7.73 and 8.04 and 7.505 and 7.682
expression, probeset 1384641_at: 5.867 and 5.877 and 5.784 and 5.513 and 5.517 and 5.626
expression, probeset 1384849_at: 4.659 and 4.629 and 5.174 and 5.223 and 4.879 and 4.92
expression, probeset 1384923_at: 6.977 and 7.2 and 6.818 and 6.939 and 6.837 and 6.982
expression, probeset 1385137_at: 6.326 and 6.421 and 6.154 and 5.912 and 6.02 and 6.248
expression, probeset 1385163_at: 6.063 and 5.993 and 6.045 and 5.955 and 5.885 and 6.124
expression, probeset 1385336_at: 4.379 and 4.499 and 4.426 and 4.399 and 4.645 and 4.457
expression, probeset 1385442_at: 7.16 and 7.404 and 6.997 and 6.879 and 6.92 and 6.943
expression, probeset 1385518_at: 6.937 and 6.773 and 6.99 and 6.986 and 7.076 and 6.76
expression, probeset 1385535_at: 4.02 and 3.842 and 4.063 and 4.09 and 4.042 and 4.166
expression, probeset 1385652_at: 7.797 and 7.898 and 7.543 and 7.484 and 7.575 and 7.378
expression, probeset 1385676_at: 8.114 and 8.061 and 8.462 and 8.533 and 8.039 and 8.344
expression, probeset 1385698_at: 3.878 and 3.859 and 3.777 and 3.605 and 3.7424 and 3.746
expression, probeset 1385760_at: 7.137 and 7.354 and 6.648 and 7.09 and 7.316 and 7.321
expression, probeset 1385775_at: 4.145 and 4.375 and 3.896 and 3.993 and 4.079 and 4.161
expression, probeset 1386125_at: 6.311 and 6.381 and 6.134 and 6.261 and 6.055 and 6.325
expression, probeset 1386158_at: 4.004 and 4.128 and 4.063 and 4.152 and 3.988 and 3.931
expression, probeset 1386414_at: 6.861 and 7.196 and 6.932 and 7.199 and 7.249 and 7.033
expression, probeset 1386519_x_at: 7.188 and 7.295 and 7.082 and 7.038 and 7.203 and 7.126
expression, probeset 1387083_at: 5.565 and 6.278 and 5.686 and 5.781 and 5.789 and 5.938
expression, probeset 1387136_at: 6.691 and 6.697 and 6.593 and 6.718 and 6.67 and 6.537
expression, probeset 1387406_at: 6.01 and 6.243 and 5.981 (2×) and 5.916 and 6.087
expression, probeset 1387459_at: 3.484 and 3.639 and 3.932 and 3.86 and 3.992 and 3.799
expression, probeset 1387764_at: 5.733 and 5.268 and 5.537 and 5.549 and 5.494 and 5.603
expression, probeset 1387899_at: 5.335 and 5.408 and 5.339 and 5.026 and 4.958 and 5.215
expression, probeset 1387912_at: 8.618 and 8.518 and 8.718 and 9.05 and 9.01 and 8.757
expression, probeset 1388037_at: 4.856 and 4.68 and 4.647 and 4.894 and 4.953 and 4.682
expression, probeset 1388091_at: 4.362 and 4.794 and 4.302 and 4.133 and 4.449 and 4.329
expression, probeset 1388390_at: 10.86 and 10.87 and 11.34 and 11.8393 and 11.4165 and 11.4451
expression, probeset 1388396_at: 8.176 and 7.836 and 8.032 and 8.018 and 7.774 and 8.067
expression, probeset 1388447_at: 7.564 and 7.841 and 7.682 and 7.537 and 7.38 and 7.532
expression, probeset 1388486_at: 7.701 and 7.565 and 7.723 and 7.751 and 7.921 and 7.749
expression, probeset 1388781_at: 5.825 and 6.004 and 5.674 and 5.735 and 5.979 and 5.673
expression, probeset 1388938_at: 9.061 and 9.268 and 8.805 and 8.994 and 8.728 and 9.107
expression, probeset 1389095_at: 5.489 and 5.217 and 5.112 and 5.397 and 5.478 and 5.073
expression, probeset 1389431_at: 6.558 and 6.3 and 6.381 and 6.49 and 6.951 and 6.471
expression, probeset 1389551_at: 8.862 and 8.606 and 8.909 and 8.801 and 8.621 and 8.842
expression, probeset 1389664_at: 7.741 and 8.146 and 7.529 and 7.949 and 7.982 and 7.952
expression, probeset 1389835_at: 4.064 and 3.784 and 4.093 and 4.045 (2×) and 4.18
expression, probeset 1389917_at: 5.998 and 5.507 and 6.012 and 5.987 and 5.908 and 5.888
expression, probeset 1389938_at: 3.638 and 3.579 and 3.678 and 3.837 and 3.753 and 3.593
expression, probeset 1390090_at: 7.476 and 7.464 and 7.498 and 7.393 and 7.3 and 7.578
expression, probeset 1390259_at: 4.304 and 4.546 and 4.677 and 4.255 and 4.358 and 4.411
expression, probeset 1390464_at: 5.625 and 5.847 and 5.541 and 5.807 and 5.983 and 5.83
expression, probeset 1390534_at: 6.478
expression, probeset 1390603_at: 6.467 and 6.868 and 6.527 and 6.621 and 6.242 and 6.674
expression, probeset 1390649_at: 7.28 and 7.575 and 6.821 and 7.034 and 7.132 and 6.938
expression, probeset 1390892_at: 5.112 and 5.3382 and 4.891 and 5.21 and 4.944 and 5.358
